According to patent US20250082630A1, “METHODS OF TREATING BRAIN TUMOURS AND NEUROBLASTOMAS” (AstraZeneca AB, priority 2021, published 2025):

Tests used:
PARP5a = PARP5a (Homo sapiens (Human), UniProt O95271); test: PARP fluorescence anisotropy binding assay, PARP5a
Experimental: Recombinant PARP5a binding domain was diluted to 160 nM with 50 mM Tris pH 8, 0.001% Triton X100, 10 mM MgCl2, 150 mM NaCl and incubated for four hours with an equivalent volume of 6 nM fluorescent probe diluted with 50 mM Tris pH 8, 0.001% Triton X100, 10 mM MgCl2, 150 mM NaCl. The final DMSO concentration of the probe was kept below 1% (v/v).
Fluorescence anisotropy of the probe when bound to the proteins was measured using a BMG Pherastar FSX® in the presence of test compounds or solvent control and the effect on anisotropy determined. % inhibition values for different test compound concentrations were calculated and fitted to a four parameter logistic plot in order to determine the IC50 value. Where necessary, the compound K, can be determined from the IC50 value using a Munson Rodbard equation defined in Anal Biochem. 1980 Sep.

PARP1 = PARP1 (Homo sapiens (Human), UniProt P09874); test: PARP fluorescence anisotropy binding assay, PARP1
PARP2 = PARP2 (Homo sapiens (Human), UniProt Q9UGN5); test: PARP fluorescence anisotropy binding assay, PARP2
Experimental: Recombinant full length PARP2 protein was diluted to 6 nM with 50 mM Tris pH 8, 0.001% Triton X100, 10 mM MgCl2, 150 mM NaCl and incubated for four hours with an equivalent volume of 2 nM fluorescent probe diluted with 50 mM Tris pH 8, 0.001% Triton X100, 10 mM MgCl2, 150 mM NaCl. The final DMSO concentration of the probe was kept below 1% (v/v).
(§1) Fluorescence anisotropy of the probe when bound to the proteins was measured using a BMG Pherastar FSX® in the presence of test compounds or solvent control and the effect on anisotropy determined. % inhibition values for different test compound concentrations were calculated and fitted to a four parameter logistic plot in order to determine the IC50 value.

PARP3 = PARP3 (Homo sapiens (Human), UniProt Q9Y6F1); test: PARP fluorescence anisotropy binding assay, PARP3
Chain of PARP3 (Q9Y6F1 whole entry): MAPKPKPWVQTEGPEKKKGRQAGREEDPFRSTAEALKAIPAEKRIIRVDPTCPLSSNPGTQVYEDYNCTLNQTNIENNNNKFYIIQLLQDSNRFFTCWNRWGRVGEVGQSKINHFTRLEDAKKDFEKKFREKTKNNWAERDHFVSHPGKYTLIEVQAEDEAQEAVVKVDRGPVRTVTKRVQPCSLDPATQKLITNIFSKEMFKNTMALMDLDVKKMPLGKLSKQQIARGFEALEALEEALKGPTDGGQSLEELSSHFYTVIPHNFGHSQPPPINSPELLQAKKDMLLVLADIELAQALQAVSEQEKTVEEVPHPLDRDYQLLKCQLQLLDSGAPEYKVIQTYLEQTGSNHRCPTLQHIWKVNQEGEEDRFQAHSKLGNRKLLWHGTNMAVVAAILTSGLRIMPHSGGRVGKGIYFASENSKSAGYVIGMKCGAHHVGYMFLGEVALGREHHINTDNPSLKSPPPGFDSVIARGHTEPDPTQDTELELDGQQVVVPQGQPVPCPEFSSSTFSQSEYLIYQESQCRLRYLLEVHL
Experimental: Recombinant full length PARP3 protein was diluted to 100 nM with 50 mM Tris pH 8, 0.001% Triton X100, 10 mM MgCl2, 150 mM NaCl and incubated for four hours with an equivalent volume of 6 nM fluorescent probe diluted with 50 mM Tris pH 8, 0.001% Triton X100, 10 mM MgCl2, 150 mM NaCl. The final DMSO concentration of the probe was kept below 1% (v/v).

PARP6 = PARP6 (Homo sapiens (Human), UniProt Q2NL67); test: PARP fluorescence anisotropy binding assay, PARP6
Chain of PARP6 (Q2NL67 whole entry): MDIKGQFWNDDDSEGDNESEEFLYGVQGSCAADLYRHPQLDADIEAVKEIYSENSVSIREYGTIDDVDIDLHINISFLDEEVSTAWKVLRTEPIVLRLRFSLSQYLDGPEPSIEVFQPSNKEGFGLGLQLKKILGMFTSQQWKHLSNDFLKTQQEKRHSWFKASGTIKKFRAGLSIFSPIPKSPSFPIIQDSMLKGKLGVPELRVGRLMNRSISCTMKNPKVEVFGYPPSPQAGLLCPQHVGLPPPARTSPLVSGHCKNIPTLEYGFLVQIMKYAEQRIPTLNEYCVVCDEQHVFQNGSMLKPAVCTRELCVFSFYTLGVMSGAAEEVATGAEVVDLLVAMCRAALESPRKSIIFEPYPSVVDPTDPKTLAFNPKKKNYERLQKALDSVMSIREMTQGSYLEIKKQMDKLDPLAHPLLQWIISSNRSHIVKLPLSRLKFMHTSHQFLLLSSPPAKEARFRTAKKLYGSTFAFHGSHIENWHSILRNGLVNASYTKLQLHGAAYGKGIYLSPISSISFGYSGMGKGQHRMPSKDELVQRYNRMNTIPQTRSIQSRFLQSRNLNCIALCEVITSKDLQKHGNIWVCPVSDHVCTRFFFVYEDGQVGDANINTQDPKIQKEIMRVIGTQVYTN
Experimental: Recombinant full length GST tagged PARP6 protein was diluted to 160 nM with 50 mM Tris pH 8, 0.001% Triton X100, 10 mM MgCl2, 150 mM NaCl and incubated for four hours with an equivalent volume of 6 nM fluorescent probe diluted with 50 mM Tris pH 8, 0.001% Triton X100, 10 mM MgCI2, 150 mM NaCl. The final DMSO concentration of the probe was kept below 1% (v/v).
as §1, with “value. Where necessary, the compound K, can be determined from the IC50 value using a Munson Rodbard equation defined in Anal Biochem. 1980 Sep. 1; 107(1):220-39 and is based on the known KD of the probe binding to the relevant PARP protein” for “value.”

MDR1 and BCRP = test: In vitro human transporter efflux (MDCK-MDR1-BCRP); details: human, pH 7.4
Experimental: MDCKII cells expressing MDR1 and BCRP were seeded onto polyethylene membranes in 96-well Transwell insert systems at a density to form a confluent cell monolayer. […] The final percent volume of the organic solvent was less than 1%. Permeation of the test compounds from A to B direction and from B to A direction was determined over a 90-min incubation at 37° C. and 5% CO2 with a relative humidity of 95%. At the end of the incubation, samples from the apical and basolateral side were taken and then precipitated with cold acetonitrile containing internal standard. After centrifugation at 4000 rpm, the supernatant was diluted with 0.1% formic acid aqueous solution and quantified by LC-MS/MS. The integrity of the cell monolayers was confirmed by using the marker Lucifer yellow.
The permeability coefficient (1×10-6 cm/s) was calculated using the following equation
(1) The Efflux Ratio was Calculated Using the Following Equation
Efflux ratio=Papp(B to A)/Papp(A to B)
(2) where dCr/dt is the cumulative concentration of the compound in the receiver chamber as a function of time (in μM/s); Vr is the solution volume in the receiver chamber (0.1 ml on the apical side and 0.3 ml on the basolateral side); A is the surface area for the transport, that is, 0.11 cm2 for the area of the monolayer; and C0 is the initial concentration in the donor chamber (in μM).

Chain of PARP5a (O95271 1112-1317): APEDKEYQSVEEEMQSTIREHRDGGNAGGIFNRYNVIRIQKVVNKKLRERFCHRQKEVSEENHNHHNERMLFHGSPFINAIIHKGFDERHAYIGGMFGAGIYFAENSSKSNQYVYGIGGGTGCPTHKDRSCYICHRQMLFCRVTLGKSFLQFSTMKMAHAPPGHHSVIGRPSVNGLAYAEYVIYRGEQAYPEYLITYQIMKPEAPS
Chain of PARP1 (P09874 whole entry): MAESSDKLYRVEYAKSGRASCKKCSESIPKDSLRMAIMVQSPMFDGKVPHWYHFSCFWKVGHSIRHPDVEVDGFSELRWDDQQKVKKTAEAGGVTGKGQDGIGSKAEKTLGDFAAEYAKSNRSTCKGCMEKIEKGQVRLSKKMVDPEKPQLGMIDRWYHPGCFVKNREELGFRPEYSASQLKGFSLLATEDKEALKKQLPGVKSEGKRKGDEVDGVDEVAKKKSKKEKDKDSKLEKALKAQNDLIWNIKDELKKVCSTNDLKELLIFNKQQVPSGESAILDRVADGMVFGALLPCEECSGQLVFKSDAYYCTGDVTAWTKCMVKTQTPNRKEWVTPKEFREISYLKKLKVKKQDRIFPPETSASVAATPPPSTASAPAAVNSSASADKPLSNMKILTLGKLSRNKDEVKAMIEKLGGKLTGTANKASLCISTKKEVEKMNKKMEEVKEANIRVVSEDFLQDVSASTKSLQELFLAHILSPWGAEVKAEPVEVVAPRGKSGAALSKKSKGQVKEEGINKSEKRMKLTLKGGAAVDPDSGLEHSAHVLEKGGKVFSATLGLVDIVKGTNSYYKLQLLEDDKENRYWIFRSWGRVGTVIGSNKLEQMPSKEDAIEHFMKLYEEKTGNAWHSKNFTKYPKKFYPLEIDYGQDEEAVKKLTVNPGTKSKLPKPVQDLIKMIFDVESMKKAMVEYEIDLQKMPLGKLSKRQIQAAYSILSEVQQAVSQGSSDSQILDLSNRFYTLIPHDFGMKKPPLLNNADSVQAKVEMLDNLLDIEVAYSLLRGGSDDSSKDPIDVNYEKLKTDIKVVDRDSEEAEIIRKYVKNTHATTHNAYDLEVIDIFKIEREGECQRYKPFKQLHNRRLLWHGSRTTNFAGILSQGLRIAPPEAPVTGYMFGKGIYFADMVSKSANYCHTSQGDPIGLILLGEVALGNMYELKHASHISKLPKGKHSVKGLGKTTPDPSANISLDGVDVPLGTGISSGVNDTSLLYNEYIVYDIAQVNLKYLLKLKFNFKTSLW
Chain of PARP2 (Q9UGN5 whole entry): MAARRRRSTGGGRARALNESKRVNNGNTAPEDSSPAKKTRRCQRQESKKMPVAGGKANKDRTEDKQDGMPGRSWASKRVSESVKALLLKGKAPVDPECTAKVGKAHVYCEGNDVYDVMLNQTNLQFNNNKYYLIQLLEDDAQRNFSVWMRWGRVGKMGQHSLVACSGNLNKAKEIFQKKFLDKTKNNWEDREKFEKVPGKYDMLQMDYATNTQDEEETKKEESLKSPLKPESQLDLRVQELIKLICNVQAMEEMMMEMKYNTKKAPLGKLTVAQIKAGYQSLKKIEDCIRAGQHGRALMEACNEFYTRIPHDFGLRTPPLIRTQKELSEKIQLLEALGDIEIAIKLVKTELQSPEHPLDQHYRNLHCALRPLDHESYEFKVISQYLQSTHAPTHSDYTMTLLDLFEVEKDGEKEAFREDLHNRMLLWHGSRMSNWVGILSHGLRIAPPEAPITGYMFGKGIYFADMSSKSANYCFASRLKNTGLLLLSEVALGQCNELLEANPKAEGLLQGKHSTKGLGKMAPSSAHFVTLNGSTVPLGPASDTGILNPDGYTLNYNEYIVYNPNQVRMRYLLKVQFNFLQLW

Row | SMILES | IC50 (PARP5a) [µM] | IC50 (PARP1) [µM] | IC50 (PARP2) [µM] | IC50 (PARP3) [µM] | IC50 (PARP6) [µM] | efflux ratio at 90 min (MDR1 and BCRP)
1 | CNC(=O)c1ccc(N2CCN(Cc3ccc4nc(C)c(=O)[nH]c4c3F)CC2)cn1 [Example 32, 5-[4-[(5-fluoro-2-methyl-3-oxo-4H-quinoxalin-6-yl)methyl]piperazin-1-yl]-N-methyl-pyridine-2-carboxamide] | > 100 | 0.007 | > 100 | > 100 | > 100 | 
2 | CNC(=O)c1ccc(N2CCN(Cc3ccc4nc(OC)c(=O)[nH]c4c3F)CC2)c(F)n1 [Example 39, 6-fluoro-5-[4-[(5-fluoro-2-methoxy-3-oxo-4H-quinoxalin-6-yl)methyl]piperazin-1-yl]-N-methyl-pyridine-2-carboxamide] | > 100 | 0.006 | > 100 | > 100 | > 100 | 1.9
3 | CNC(=O)c1ccc(N2CCN(Cc3ccc4nc(C(F)(F)F)c(=O)[nH]c4c3F)CC2)c(Cl)n1 [Example 49, 6-chloro-5-[4-[[5-fluoro-3-oxo-2-(trifluoromethyl)-4H-quinoxalin-6-yl]methyl]piperazin-1-yl]-N-methyl-pyridine-2-carboxamide] | > 100 | 0.043 | 11 | > 29 | > 100 | 
4 | CNC(=O)c1ccc(N2CCN(Cc3ccc4nc(C)c(=O)[nH]c4c3F)CC2)c(Cl)n1 [Example 30, 6-chloro-5-[4-[(5-fluoro-2-methyl-3-oxo-4H-quinoxalin-6-yl)methyl]piperazin-1-yl]-N-methyl-pyridine-2-carboxamide] | > 100 | 0.006 | > 100 | > 100 | > 100 | 1.8
5 | CCc1nc2ccc(CN3CCN(c4ccc(C(=O)NC)nc4C(F)F)CC3)c(F)c2[nH]c1=O [Example 24, 6-(difluoromethyl)-5-[4-[(2-ethyl-5-fluoro-3-oxo-4H-quinoxalin-6-yl)methyl]piperazin-1-yl]-N-methyl-pyridine-2-carboxamide] | > 100 | 0.006 | > 81 | > 100 | > 100 | 1.1
6 | CNC(=O)c1ccc(N2CCN(Cc3ccc4nc(C)c(=O)[nH]c4c3C)CC2)c(Cl)n1 [Example 3, 6-chloro-5-[4-[(2,5-dimethyl-3-oxo-4H-quinoxalin-6-yl)methyl]piperazin-1-yl]-N-methyl-pyridine-2-carboxamide] | > 100 | 0.003 | > 100 | > 100 | > 100 | 1.3
7 | CNC(=O)c1ccc(N2CCN(Cc3ccc4nc(C(F)(F)F)c(=O)[nH]c4c3F)CC2)c(C)n1 [Example 47, 5-[4-[[5-fluoro-3-oxo-2-(trifluoromethyl)-4H-quinoxalin-6-yl]methyl]piperazin-1-yl]-N,6-dimethyl-pyridine-2-carboxamide] | > 100 | 0.076 | > 100 | > 100 | > 100 | 
8 | CCNC(=O)c1ccc(N2CCN(Cc3ccc4nc(C)c(=O)[nH]c4c3F)CC2)c(F)n1 [Example 45, N-ethyl-6-fluoro-5-[4-[(5-fluoro-2-methyl-3-oxo-4H-quinoxalin-6-yl)methyl]piperazin-1-yl]pyridine-2-carboxamide] |  | 0.006 | > 100 |  |  | 1.5
9 | CCc1nc2ccc(CN3CCN(c4ccc(C(=O)NC)nc4Cl)CC3)c(F)c2[nH]c1=O [Example 28, 6-chloro-5-[4-[(2-ethyl-5-fluoro-3-oxo-4H-quinoxalin-6-yl)methyl]piperazin-1-yl]-N-methyl-pyridine-2-carboxamide] | > 100 | 0.005 | > 100 | > 100 | > 100 | 0.8
10 | CNC(=O)c1ccc(N2CCN(Cc3ccc4nc(OC)c(=O)[nH]c4c3F)CC2)c(C)n1 [Example 40, 5-[4-[(5-fluoro-2-methoxy-3-oxo-4H-quinoxalin-6-yl)methyl]piperazin-1-yl]-N,6-dimethyl-pyridine-2-carboxamide] | 13 | 0.011 | > 100 | > 100 | > 100 | 2
11 | CNC(=O)c1ccc(N2CCN(Cc3ccc4nc(C(F)F)c(=O)[nH]c4c3F)CC2)c(C)n1 [Example 37, 5-[4-[[2-(difluoromethyl)-5-fluoro-3-oxo-4H-quinoxalin-6-yl]methyl]piperazin-1-yl]-N,6-dimethyl-pyridine-2-carboxamide] |  | 0.026 | 57 |  |  | 5
12 | CNC(=O)c1ccc(N2CCN(Cc3ccc4nc(C)c(=O)[nH]c4c3F)CC2)c(C(F)F)n1 [Example 21, 6-(difluoromethyl)-5-[4-[(5-fluoro-2-methyl-3-oxo-4H-quinoxalin-6-yl)methyl]piperazin-1-yl]-N-methyl-pyridine-2-carboxamide] | > 100 | 0.007 | > 100 | 5.8 | > 100 | 1.6
13 | CNC(=O)c1ccc(N2CCN(Cc3ccc4nc(C(C)(F)F)c(=O)[nH]c4c3F)CC2)c(C)n1 [Example 19, 5-[4-[[2-(1,1-difluoroethyl)-5-fluoro-3-oxo-4H-quinoxalin-6-yl]methyl]piperazin-1-yl]-N,6-dimethyl-pyridine-2-carboxamide] |  | 0.013 | 40 |  |  | 2.4
14 | CNC(=O)c1ccc(N2CCN(Cc3ccc4nc(OC)c(=O)[nH]c4c3C)CC2)c(C(F)F)n1 [Example 59, 6-(difluoromethyl)-5-[4-[(2-methoxy-5-methyl-3-oxo-4H-quinoxalin-6-yl)methyl]piperazin-1-yl]-N-methyl-pyridine-2-carboxamide] |  | 0.006 | 2.1 |  |  | 
15 | CNC(=O)c1ccc(N2CCN(Cc3ccc4nc(C5CC5)c(=O)[nH]c4c3F)CC2)c(C)n1 [Example 55, 5-[4-[(2-cyclopropyl-5-fluoro-3-oxo-4H-quinoxalin-6-yl)methyl]piperazin-1-yl]-N,6-dimethyl-pyridine-2-carboxamide] |  | 0.005 | > 100 |  |  | 
16 | Cc1nc(C(N)=O)ccc1N1CCN(Cc2ccc3nc(C)c(=O)[nH]c3c2F)CC1 [Example 6, 5-[4-[(5-fluoro-2-methyl-3-oxo-4H-quinoxalin-6-yl)methyl]piperazin-1-yl]-6-methyl-pyridine-2-carboxamide] |  | 0.004 | > 100 |  |  | 
17 | CNC(=O)c1ccc(N2CCN(Cc3ccc4nc(OC)c(=O)[nH]c4c3F)CC2)cn1 [Example 38, 5-[4-[(5-fluoro-2-methoxy-3-oxo-4H-quinoxalin-6-yl)methyl]piperazin-1-yl]-N-methyl-pyridine-2-carboxamide] | > 100 | 0.012 | 21 | > 100 | > 100 | 
18 | CCc1nc2ccc(CN3CCN(c4ccc(C(=O)NC)nc4F)CC3)c(Cl)c2[nH]c1=O [Example 9, 5-[4-[(5-chloro-2-ethyl-3-oxo-4H-quinoxalin-6-yl)methyl]piperazin-1-yl]-6-fluoro-N-methyl-pyridine-2-carboxamide] |  | 0.004 |  |  |  | 0.4
19 | Cc1nc(C(N)=O)ccc1N1CCN(Cc2ccc3nc(C)c(=O)[nH]c3c2C)CC1 [Example 7, 5-[4-[(2,5-dimethyl-3-oxo-4H-quinoxalin-6-yl)methyl]piperazin-1-yl]-6-methyl-pyridine-2-carboxamide] |  | 0.006 | 58 |  |  | 
20 | CCc1nc2ccc(CN3CCN(c4ccc(C(N)=O)nc4)CC3)c(F)c2[nH]c1=O [Example 25, 5-[4-[(2-ethyl-5-fluoro-3-oxo-4H-quinoxalin-6-yl)methyl]piperazin-1-yl]pyridine-2-carboxamide] |  | 0.005 | > 100 |  |  | 
21 | CNC(=O)c1ccc(N2CCN(Cc3ccc4nc(OC)c(=O)[nH]c4c3F)CC2)c(Cl)n1 [Example 41, 6-chloro-5-[4-[(5-fluoro-2-methoxy-3-oxo-4H-quinoxalin-6-yl)methyl]piperazin-1-yl]-N-methyl-pyridine-2-carboxamide] | > 100 | 0.005 | > 100 | > 100 | > 100 | 2.4
22 | CCc1nc2ccc(CN3CCN(c4ccc(C(N)=O)nc4C)CC3)c(F)c2[nH]c1=O [Example 26, 5-[4-[(2-ethyl-5-fluoro-3-oxo-4H-quinoxalin-6-yl)methyl]piperazin-1-yl]-6-methyl-pyridine-2-carboxamide] |  | 0.005 | 88 |  |  | 
